In patent publication US5075289A, “9-R-azacyclic erythromycin antibiotics” (priority 1988, dated 1991):
Values after ≈ are worked out from the molar mass of the structure shown. Read-outs that look alike come from different tables or passages of the source.

Experiments:
Format in all cases: cell-based
[1] = tested on: Streptococcus bovis A5169; test: In vitro antibacterial activity, agar dilution MIC
Experimental: (§1) The antimicrobial spectra of a number of compounds of the invention were tested by the following method:
(§2) Twelve petri dishes containing successive aqueous dilutions of the test compound mixed with 10 ml of sterilized Brain Heart Infusion agar (Difco 0418-01-5) are prepared. Each plate is inoculated with 1:100 (or 1:10 for slow growing strains, primarily Micrococcus and Streptococcus) dilutions of up to 32 different microorganisms, using a Steers replicator block The inoculated plates are incubated at 35°-37° C. for 20-24 hours. In addition, a control plate, using BHI agar containing no test compound, is prepared and incubated at the beginning and end of each test.
(§3) An additional plate containing a compound having known susceptibility patterns for the organisms being tested and belonging to the same antibiotic class as the test compound is also prepared and incubated as a further control, as well as to provide test-to-test comparability. Erythromycin A was used for this purpose.
(§4) After incubation, each disk is read. The MIC is defined as the lowest concentration of drug yielding no growth, a slight haze, or sparsely isolated colonies on the inoculum spot as compared to the growth control.

Staphylococcus aureus 45 = test: In vitro antibacterial activity, agar dilution MIC
Experimental: as §1, §2, §3, §4

[2] = tested on: Micrococcus luteus ATCC 4698; test: In vitro antibacterial activity, agar dilution MIC
Experimental: as §1, §2, §3, §4

Escherichia coli SS = test: In vitro antibacterial activity, agar dilution MIC
Experimental: as §1, §2, §3, §4

[3] = tested on: Staphylococcus epidermidis 3519; test: In vitro antibacterial activity, agar dilution MIC
Experimental: as §1, §2, §3, §4

[4] = tested on: Staphylococcus aureus CMX 553; test: In vitro antibacterial activity, agar dilution MIC
Experimental: as §1, §2, §3, §4

[5] = tested on: Staphylococcus aureus A5177; test: In vitro antibacterial activity, agar dilution MIC
Experimental: as §1, §2, §3, §4

[6] = tested on: Streptococcus pyogenes EES61; test: In vitro antibacterial activity, agar dilution MIC
Experimental: as §1, §2, §3, §4

Escherichia coli DC-2 = test: In vitro antibacterial activity, agar dilution MIC
Experimental: as §1, §2, §3, §4

[7] = tested on: Micrococcus luteus ATCC 9341; test: In vitro antibacterial activity, agar dilution MIC
Experimental: as §1, §2, §3, §4

[8] = tested on: Staphylococcus aureus NCTC 10649; test: In vitro antibacterial activity, agar dilution MIC
Experimental: as §1, §2, §3, §4

[9] = tested on: Staphylococcus aureus 642A; test: In vitro antibacterial activity, agar dilution MIC
Experimental: as §1, §2, §3, §4

[10] = tested on: Streptococcus agalactiae CMX 508; test: In vitro antibacterial activity, agar dilution MIC
Experimental: as §1, §2, §3, §4

[11] = tested on: Staphylococcus aureus ATCC 6538P; test: In vitro antibacterial activity, agar dilution MIC; conditions: ATCC6538P
Experimental: as §1, §2, §3, §4

[12] = tested on: Enterococcus faecium ATCC 8043; test: In vitro antibacterial activity, agar dilution MIC
Experimental: as §1, §2, §3, §4

Escherichia coli Juhl = test: In vitro antibacterial activity, agar dilution MIC
Experimental: as §1, §2, §3, §4

[13] = tested on: Streptococcus pyogenes 930 CONST; test: In vitro antibacterial activity, agar dilution MIC
Experimental: as §1, §2, §3, §4

Escherichia coli H560 = test: In vitro antibacterial activity, agar dilution MIC
Experimental: as §1, §2, §3, §4

[14] = tested on: Staphylococcus aureus 45 RAR 2; test: microbe, parasite or virus in culture; conditions: 45RAR2
Experimental: as §1, §2, §3, §4

[15] = tested on: Staphylococcus aureus CMX 503A; test: In vitro antibacterial activity, agar dilution MIC; conditions: CMX503A
Experimental: as §1, §2, §3, §4

[16] = tested on: Streptococcus pyogenes 2548 INDUC; test: In vitro antibacterial activity, agar dilution MIC
Experimental: as §1, §2, §3, §4

[17] = tested on: Staphylococcus aureus CMX 686B; test: In vitro antibacterial activity, agar dilution MIC; conditions: CMX686B
Experimental: as §1, §2, §3, §4

[18] = S. epidermidis 3519, Brain Heart Infusion agar, 20-24 hours, read-out: MIC
[19] = CMX553, S. aureus CMX 553, Brain Heart Infusion agar, 20-24 hours, read-out: MIC
[20] = S. aureus A5177, Brain Heart Infusion agar, 20-24 hours, read-out: MIC
[21] = S. pyogenes EES61, Brain Heart Infusion agar, 20-24 hours, read-out: MIC
[22] = ATCC9341, M. luteus ATCC 9341, Brain Heart Infusion agar, 20-24 hours, read-out: MIC
[23] = CMX508, S. agalactiae CMX 508, Brain Heart Infusion agar, 20-24 hours, read-out: MIC
[24] = S. bovis A5169, Brain Heart Infusion agar, 20-24 hours, read-out: MIC
[25] = S. aureus 45, Brain Heart Infusion agar, 20-24 hours, read-out: MIC
[26] = ATCC4698, M. luteus ATCC 4698, Brain Heart Infusion agar, 20-24 hours, read-out: MIC
[27] = E. coli SS, Brain Heart Infusion agar, 20-24 hours, read-out: MIC
[28] = ATCC8043, E. faecium ATCC 8043, Brain Heart Infusion agar, 20-24 hours, read-out: MIC
[29] = S. pyogenes 2548 INDUC, Brain Heart Infusion agar, 20-24 hours, read-out: MIC
[30] = E. coli Juhl, Brain Heart Infusion agar, 20-24 hours, read-out: MIC
[31] = E. coli H560, Brain Heart Infusion agar, 20-24 hours, read-out: MIC

SMILES	MIC (Staphylococcus aureus 45; 45)	MIC ([2]; ATCC4698)	MIC [3, 18]	MIC [4, 19]	MIC [5, 20]	MIC [6, 21]	MIC (Escherichia coli DC-2; DC2)	MIC [7, 22]	MIC [10, 23]	MIC [11]	MIC ([12]; ATCC8043)	MIC (Escherichia coli Juhl)	MIC ([13]; 930CONST)	MIC (Escherichia coli H560; H560)	MIC [14]	MIC [1, 24]	MIC (Staphylococcus aureus 45; [25])	MIC [2, 26]	MIC (Escherichia coli SS; [27])	MIC [3]; 3519	other results
CC[C@H]1OC(=O)[C@H](C)[C@@H](O[C@H]2C[C@@](C)(OC)[C@@H](O)[C@H](C)O2)[C@H](C)[C@@H](O[C@@H]2O[C@H](C)C[C@H](N(C)C)[C@H]2O)[C@](C)(O)C[C@@H](C)[C@@H](N2CCCC(C)(C)C2)[C@H](C)[C@@H](O)[C@]1(C)O [Example 1]	0.39 mg/L (≈ 0.469 µM)	0.1 mg/L (≈ 0.12 µM)	0.78 mg/L (≈ 0.938 µM)	0.78 mg/L (≈ 0.938 µM)	6.2 mg/L (≈ 7.46 µM)	0.1 mg/L (≈ 0.12 µM)	50 mg/L (≈ 60.2 µM)	0.05 mg/L (≈ 0.0602 µM)	0.1 mg/L (≈ 0.12 µM)	0.39 mg/L (≈ 0.469 µM)	0.1 mg/L (≈ 0.12 µM)	25 mg/L (≈ 30.1 µM)	> 100 mg/L	6.2 mg/L (≈ 7.46 µM)	0.78 mg/L (≈ 0.938 µM)						MIC ([1]; read-out: MIC): 0.02 mg/L (≈ 0.0241 µM); MIC (Escherichia coli SS; read-out: MIC): 0.2 mg/L (≈ 0.241 µM); MIC ([8]; NCTC10649, S. aureus NCTC 10649, Brain Heart Infusion agar, 20-24 hours, read-out: MIC): 0.78 mg/L (≈ 0.938 µM); MIC ([9]; S. aureus 642A, Brain Heart Infusion agar, 20-24 hours, read-out: MIC): 0.78 mg/L (≈ 0.938 µM)
CC[C@H]1OC(=O)[C@H](C)[C@@H](O[C@H]2C[C@@](C)(OC)[C@@H](O)[C@H](C)O2)[C@H](C)[C@@H](O[C@@H]2O[C@H](C)C[C@H](N(C)C)[C@H]2O)[C@](C)(O)C[C@@H](C)[C@@H](N2CCCCCC2)[C@H](C)[C@@H](O)[C@]1(C)O [Example 2]					0.31 mg/L (≈ 0.379 µM)	0.05 mg/L (≈ 0.0612 µM)	12.5 mg/L (≈ 15.3 µM)	0.005 mg/L (≈ 0.00612 µM)	0.05 mg/L (≈ 0.0612 µM)	0.39 mg/L (≈ 0.477 µM)			> 100 mg/L		0.39 mg/L (≈ 0.477 µM)	0.02 mg/L (≈ 0.0245 µM)	0.2 mg/L (≈ 0.245 µM)	0.1 mg/L (≈ 0.122 µM)	0.1 mg/L (≈ 0.122 µM)	0.39 mg/L (≈ 0.477 µM)	MIC ([4]; CMX553): 0.39 mg/L (≈ 0.477 µM); MIC ([8]; NCTC10649): 0.39 mg/L (≈ 0.477 µM); MIC ([9]; 642A): 0.39 mg/L (≈ 0.477 µM); MIC [15]: 0.39 mg/L (≈ 0.477 µM); MIC [12, 28]: 0.02 mg/L (≈ 0.0245 µM); MIC [16, 29]: 12.5 mg/L (≈ 15.3 µM); MIC (Escherichia coli Juhl; [30]): 0.1 mg/L (≈ 0.122 µM); MIC (Escherichia coli H560; [31]): 3.1 mg/L (≈ 3.79 µM)
CC[C@H]1OC(=O)[C@H](C)[C@@H](O[C@H]2C[C@@](C)(OC)[C@@H](O)[C@H](C)O2)[C@H](C)[C@@H](O[C@@H]2O[C@H](C)C[C@H](N(C)C)[C@H]2O)[C@](C)(O)C[C@@H](C)[C@@H](N2CCCC2)[C@H](C)[C@@H](O)[C@]1(C)O [Example 3]			1.56 mg/L (≈ 1.98 µM)	1.56 mg/L (≈ 1.98 µM)	25 mg/L (≈ 31.7 µM)	0.1 mg/L (≈ 0.127 µM)		0.39 mg/L (≈ 0.494 µM)	0.2 mg/L (≈ 0.253 µM)						1.56 mg/L (≈ 1.98 µM)	0.1 mg/L (≈ 0.127 µM)	0.78 mg/L (≈ 0.989 µM)	0.78 mg/L (≈ 0.989 µM)	0.39 mg/L (≈ 0.494 µM)		MIC [17]: 1.56 mg/L (≈ 1.98 µM); MIC (Escherichia coli DC-2; DC2, E. coli DC-2, Brain Heart Infusion agar, 20-24 hours, read-out: MIC): 100 mg/L (≈ 127 µM); MIC [15]: 1.56 mg/L (≈ 1.98 µM); MIC ([11]; S. aureus ATCC 6538P, Brain Heart Infusion agar, 35-37° C., 20-24 hours, read-out: MIC): 1.56 mg/L (≈ 1.98 µM); MIC [12, 28]: 0.39 mg/L (≈ 0.494 µM); MIC [16, 29]: 50 mg/L (≈ 63.4 µM); MIC (Escherichia coli Juhl; [30]): > 100 mg/L; MIC ([13]; S. pyogenes 930 CONST, Brain Heart Infusion agar, 20-24 hours, read-out: MIC): > 100 mg/L; MIC (Escherichia coli H560; [31]): 50 mg/L (≈ 63.4 µM)
CC[C@H]1OC(=O)[C@H](C)[C@@H](O[C@H]2C[C@@](C)(OC)[C@@H](O)[C@H](C)O2)[C@H](C)[C@@H](O[C@@H]2O[C@H](C)C[C@H](N(C)C)[C@H]2O)[C@](C)(O)C[C@@H](C)[C@@H](N2CC2)[C@H](C)[C@@H](O)[C@]1(C)O [Example 4]	0.78 mg/L (≈ 1.02 µM)	0.78 mg/L (≈ 1.02 µM)					100 mg/L (≈ 131 µM)			1.56 mg/L (≈ 2.05 µM)	0.2 mg/L (≈ 0.263 µM)	> 100 mg/L	> 100 mg/L	25 mg/L (≈ 32.9 µM)	1.56 mg/L (≈ 2.05 µM)					1.56 mg/L (≈ 2.05 µM)	MIC [1]: 0.1 mg/L (≈ 0.131 µM); MIC (Escherichia coli SS): 0.78 mg/L (≈ 1.02 µM); MIC ([4]; CMX553): 1.56 mg/L (≈ 2.05 µM); MIC ([5]; A5177): 6.2 mg/L (≈ 8.15 µM); MIC ([6]; EES61): 0.2 mg/L (≈ 0.263 µM); MIC ([7]; ATCC9341): 0.1 mg/L (≈ 0.131 µM); MIC ([8]; NCTC10649): 1.56 mg/L (≈ 2.05 µM); MIC ([9]; 642A): 1.56 mg/L (≈ 2.05 µM); MIC ([10]; CMX508): 0.2 mg/L (≈ 0.263 µM); MIC ([16]; 2548INDUC): 12.5 mg/L (≈ 16.4 µM)
